Entries after “also recorded” stand apart in the source; their conditions may differ. Square brackets hold non-standard residues; d marks the D form. Ends that are not written are not given here.
Columns and labels:
HUVECs [1] = test: Endothelial cell capillary-like tube formation assay; format: cell-based; conditions: VEGF (10 ng/mL) + 25 μM peptide; vs untreated HUVECs
Description: To examine the effect of the present synthetic peptide on in vitro angiogenesis, growth factor-reduced matrigel was pipetted into pre-chilled 24-well plates (150 μl matrigel per well) and polymerized for 45 min at 37° C. […] In this experiment, images were captured using a Cannon camera on Zeiss inverted microscope with magnification ×40 and tube length was quantified using Image analysis software (Image-Pro Plus). The control peptide as used in the present invention has the sequence of DLYRVR (SEQ ID NO: 10).

rat aortic ring = test: Rat aortic ring assay (ex vivo microvessel sprouting); set-up: species or system Sprague Dawley rats; conditions: beta-FGF induced; peptide 50 μM
Description: Thoracic aortas were removed from euthanized 10-week-old male Sprague Dawley rats, and gently stripped off periaortic fibroadipose tissue. Aortas were sectioned to about 2-mm length rings, which were embedded in Matrigel. To induce angiogenesis, human recombinant bFGF (50 ng/ml) or bFGF plus the peptide (50 μM) was added in Matrigel. Gel (200 μl) containing an aortic ring was polymerized in 12-well plates (37° C. for 30 min) and then incubated with 1 ml of Medium 200 supplemented with 100 units/ml penicillin, and […] streptomycin and 2% FBS at 37 ° C. The cultures were propagated at 37 ° C. in a humidified incubator for up to 7 days. Sprouts were recorded using an inverted microscope platform (Leica DM16000B) with bright-field optics. Each ring was scored by three independent observers on a scale 0-4 depending on the degree of sprouting vessel being observed (0=no sprouting, 4=profuse sprouting). The experiment was repeated in triplicates.

[2] = tested on: STZ-induced diabetic mice; test: Vascular abnormalities in the retina of diabetic mice; format: in vivo
Description: Diabetic mice were generated by a single intraperitoneal injection of streptozotocin (STZ) (150 mg/kg body weight). STZ was freshly prepared in 0.1 M citrate buffer (pH 4.5). After injection, mice were supplied with 10% sucrose overnight to prevent sudden hypoglycemic shock. After 1 week, mice with non-fasting blood glucose levels >500 mg/dl were defined as diabetic and used for the experiments. DMSO Vehicle or the present synthetic peptide (10 mg/kg; n≥3 per peptide) were administered by intraperitoneal injections twice a day. After treatment for 24 h, mice were intraperitoneal injected with 100 mg/kg of BSA-FITC for further 30 min.
To determine vascular lesions (hemorrhaging areas) in retina, the animals were euthanized by CO2 inhalation, and the eyes were enucleated and fixed by 2% paraformaldehyde for 2 hr and flat-mounted onto glass slides to obtain optical sections by an epifluorescence microscopy. Vascular lesions in the retina was scored in all four retinal quadrants of flat mounts by using a 20× objective. Six microscopic fields were sampled in each quadrant in both the central and peripheral retina, and data were presented as the average number of lesions/retina.
Vascular FITC-BSA leakage was determined by a fluorescence spectrofluorometer based on standard curves of FITC-BSA at excitation and emission wavelengths of 488 and 535 nm, respectively, and then normalized to a non-injected control retina. For this analysis, retinas were dissected from treated and untreated diabetic mice after BSA-FITC injections, and each was solubilized in 300 μL ice-cold PBS.
Diabetic retinopathy is characterized by blood-retinal barrier (BRB) breakdown and neurotoxicity. To evaluate the possible beneficial effect of the present synthetic peptides on diabetic retinopathy, STZ-induced diabetic mice were intraperitoneally injected with 7-mer peptide, DMSO vehicle or the control peptide (SEQ ID NO: 22). The retinal vascular abnormality was then monitored by detecting the extravasation of BSA-fluorescein. Results are depicted in FIG. 11.

B16-F10 melanoma cells = test: Experimental pulmonary metastasis in mice; format: in vivo, C57BL/6 mice
Description: 2×10^5 B16-F10 cells were suspended in 100 μl PBS and checked for viability using trypan blue staining (>95%). The B16-F10 cells were then injected into the tail vein of the 6-week-old female C57BL/6 mice; while vehicle (DMSO), the present synthetic peptide or the control peptide (10 mg/kg) were administered by intraperitoneal injections every 2 days after the B16-F10 cell injection. Five mice were used for each group. On day 8 after inoculation of cells, the lungs were removed, and the number of visible colonies on the surface of the lungs were counted using a dissecting microscope.
Metastasis is the foremost cause of death from cancer. In this example, to investigate the efficacy of the present synthetic peptide on the metastasis of cancer cells, B16-F10 cells were injected into the tail vein of a mouse, the animal was then treated with the present synthetic peptide (7-mer or 7-mer DD, 10 mg/Kg) by intraperitoneal injections every 2 days. Upon completion of the experiment, the lungs were then removed and the tumor colonies visible to the eyes were then counted. Results are depicted in FIG. 10.

[3] = tested on: rat model of laser-induced wet AMD; test: Laser-induced wet AMD, rat model; format: in vivo; conditions: fluorescein angiography day 14; vs PBS vehicle
Excerpt: Further, the effect of 7-mer or 7-mer DD on rat model of laser-induced wet AMD was also investigated. Fluorescein angiography images were obtained on day 14 after laser burn, and the images were subsequently scored. Results are depicted in FIG. 14.

HUVECs [4] = test: VEGF-induced HUVEC proliferation assay; format: cell-based; conditions: VEGF (10 ng/mL) + 25 μM peptide; vs untreated HUVECs
Description: HUVECs (1×10^5 cells per well of 6-well plate) were grown in Medium 200 with Low Serum Growth Supplement (LSGS Kit, supplement contains 1.9% FBS, 3 ng/ml bFGF, 10 μg/ml heparin, 1 μg/ml hydrocortisone, and 10 ng/ml EGF). Culture plates were coated with 2% gelatin. Cells (passages 4-8) were cultured at 37° C. in a humidified atmosphere of 5% CO2. […]
HUVECs (1×10^5 cells per well of 6-well plate) in Medium 200 supplemented with LSGS Kit were allowed to grow onto 6-well plates coated with 2% gelatin for 24 hours at 37° C. in 5% CO2. The culture medium was then replaced with serum free Medium 200 overnight. […] Then, cells were harvested by trypsin-EDTA and counted using a hemocytometer.

RPMI8226 cells = test: MTT assay, VEGF-induced proliferation of RPMI8226 cells; format: cell-based
Description: The multiple myeloma line RPMI8226 was cultivated in complex medium (RPMI1640) supplemented with 10% (vol/vol) heat-inactivated fetal calf serum (Invitrogen), 50 μg/mL penicillin, 50 μg/mL streptomycin, and 2 mM L-glutamine at 37° C. in a 5% CO2 atmosphere. RPMI8226 cells were cultured in serum-free RPMI1640 medium for 24 hrs, and then cells were seeded in 48-well culture plates (3×10^5 cells/well) and continued to culture in 0.5 ml fresh serum-free RPMI1640 medium containing 25 μM peptide for another 24 hrs. The cell viability was determined by the MTT assay. Briefly, 50 μL of MTT stock solution (50 μL) (5 mg MTT dissolved in 1 ml of sterile PBS) was added to each culture well. In addition, 50 μL of the MTT stock solution was added in 500 μL of medium as the negative control. The culture plate was incubated at 37° C. for 4 hours. Aliquots (450 μl) from each sample were taken to a new well of 48-well culture plate, adding 100 μL DMSO, mixing thoroughly using the pipette and reacted at 37° C. for 20 min and read absorbance at 570 nm. These synthesized peptides were then subject to MTT assay, in which vascular endothelial growth factor (VEGF) was used as a stimulant to induce cell proliferation. Results are depicted in FIGS. 1 to 4.

HUVECs [5] = test: Apoptosis assay (annexin V-FITC); format: cell-based; conditions: HUVECs
Description: The percentage of apoptotic HUVEC cells was assayed using TACS annexin V-FITC kit. The percentage of annexin V-positive cells was determined using in situ staining according to the manufacturer's instruction. The cell number was determined by counterstaining with Hoechst 33342. The nuclei in ten randomly selected fields of the three different chambers (˜7200 cells) were counted. Specimens were examined and photographed on a Zeiss epifluorescence microscope (×100, 10 fields/sample). Pictures were recorded on Zeiss software.

[6] = tested on: human uterine sarcoma cells (MES-SA/Dx5); test: Tumorigenicity assay, xenografted human uterine sarcoma; format: in vivo, nude mice; conditions: 10 mg/kg intraperitoneal every 2 days
Description: MES-SA/Dx5 cells (5×10^6 cells in 0.1 ml) were implanted by subcutaneous injections in the right flank region of female nude mice (n=24, each animal weighted about 20 g before the assay began). The experiments were approved by the Mackay Memorial Hospital Review Board for animal investigation. Treatment was initiated in animals when the tumor volume was above 80 mm^3. Vehicle DMSO, the present synthetic peptide or the control peptide (10 mg/kg) was administered by intraperitoneal injections every 2 days. Tumor progression was monitored for 10 days; size of the tumor was measured every 3 to 5 days with a caliper and the volume was calculated using the following formula: ½×length×width^2.
To this purpose, human uterine sarcoma cells (MES-SA/Dx5) were implanted in nude mice to induce tumor formation, and when the volume of each tumor reached 80 mm^3, animals were then treated with vehicle alone, or the 7-mer peptide at the dose of 10 mg/kg, every 2 days for 10 days. Results are depicted in FIG. 9.

NH2-(D-Asp)-Leu-Tyr-Arg-Val-Arg-Ser-COOH (H-[dD]LYRVRS-OH) [7-mer DD]
Tube length (Fold) (HUVECs [1]): 1.33 ± 0.25 Fold | level of sprouting microvessels around the aortic ring (rat aortic ring): inhibited | extravasation of FITC-BSA [2]: may significantly prevent | Fluorescence Intensity (Fold) ([2]; leaked FITC-BSA in entire retina, vs vehicle): 0.38 ± 0.11 Fold | effect on number of colonies on the surface of the lung / in vivo metastasis (B16-F10 melanoma cells; 10 mg/Kg intraperitoneal every 2 days): capable of reducing the number of colonies; also recorded: may suppress in vivo metastasis | No. lung colonies (B16-F10 melanoma cells; 10 mg/Kg intraperitoneal every 2 days, day 8, n = 5): 40 ± 15.7 | Inhibition (%) (B16-F10 melanoma cells; lung colonies vs vehicle, 10 mg/Kg): 82.3% | lesions caused by the laser burn [3]: significantly ameliorated | Cell number (Fold) (HUVECs [4]): 0.90 ± 0.048 Fold | dose dependence of inhibitory action on VEGF-induced cell proliferation (RPMI8226 cells; 1 to 25 μM, RPMI8226 cells): dose dependent manner

NH2-Asp-Leu-Tyr-Arg-Val-Arg-COOH (DLYRVR; not fully specified (N-terminus, C-terminus); printed as NH2-Asp-Leu-Tyr-Arg-Val-Arg-COOH) [Control Peptide, reference compound]
induction of cell apoptosis (HUVECs [5]): did not result in cell apoptosis | sizes of tumors [6]: remained relatively unchanged | hemorrhage in the retinal parenchyma ([2]; intraperitoneal): several hemorrhaging areas | biological activity of the analogue relative to the 7-mer (summary statement of the description) (RPMI8226 cells; summary of Example 1 findings): does not possess any biological function
